This assay deals with CCR4 (Homo sapiens (Human), UniProt P51679). The assay can be described thus: Calcium mobilization (Ca Flux) assay. The assay is classed as cell-based. How it is done: Calcium Mobilization Assay. Calcium mobilization experiments may be performed by labeling the human T-cell line CEM with […] dye (45 min at room temperature), washing with PBS, and re-suspending into flux buffer (HBSS with 1% FBS).

Consider 28 compounds from patent US10246462B2, “Chemokine receptor modulators and uses thereof” (FLX Bio, Inc., priority 2016, dated 2019).

Each structure is given as a SMILES string. Structures can show the parent of a compound that is named as a salt. Where two headings read alike, the source gives them in different places. Some results are limits rather than exact numbers.

CCR4, sequence (P51679 whole entry): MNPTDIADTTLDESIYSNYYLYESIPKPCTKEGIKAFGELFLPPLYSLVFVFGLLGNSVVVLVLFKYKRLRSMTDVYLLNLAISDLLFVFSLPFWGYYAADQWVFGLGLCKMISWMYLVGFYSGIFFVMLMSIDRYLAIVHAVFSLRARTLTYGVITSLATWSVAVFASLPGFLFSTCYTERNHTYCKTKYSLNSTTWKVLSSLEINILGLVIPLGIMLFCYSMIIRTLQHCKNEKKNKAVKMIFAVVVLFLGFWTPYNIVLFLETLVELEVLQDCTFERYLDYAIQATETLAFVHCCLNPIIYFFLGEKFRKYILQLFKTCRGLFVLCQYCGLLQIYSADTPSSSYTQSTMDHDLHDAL

Broadly, the IC50 is the concentration needed to halve the response being measured. Consider `Cc1nn([C@H](C)c2ccc(Cl)cc2Cl)c2nc(N3CCC(N4CCCC(CCC(=O)O)C4)C(C)C3)cnc12` (mixture of isomers) [Example 41, 3-(1′-(1-((R)-1-(2,4-dichlorophenyl)ethyl)-3-methyl-1H-pyrazolo[3,4-b]pyrazin-6-yl)-3′-methyl-[1,4′-bipiperidin]-3-yl)propanoic acid], for which the IC50 was above 500 nM. Still for that read-out and setting: under `Cc1nn([C@H](C)c2ccc(Cl)cc2Cl)c2nc(N3CCC(N4CCC[C@H]4CCC(=O)O)C[C@@H]3C)cnc12` (mixture of isomers) [Example 50, 3-((2S)-1-((2S)-1-(1-((R)-1-(2,4-Dichlorophenyl)ethyl)-3-methyl-1H-pyrazolo[3,4-b]pyrazin-6-yl)-2-methylpiperidin-4-yl)pyrrolidin-2-yl)propanoic acid 2,2,2-trifluoroacetate] stands above 500 nM; under `Cc1nn([C@H](C)c2ccc(Cl)cc2Cl)c2nc(N3CCC(N4CCC[C@H]4C4CC4C(=O)O)C(C)C3)cnc12` (mixture of isomers) [Example 54, 2-((2S)-1-(1-(1-((R)-1-(2,4-Dichlorophenyl)ethyl)-3-methyl-1H-pyrazolo[3,4-b]pyrazin-6-yl)-3-methylpiperidin-4-yl)pyrrolidin-2-yl)cyclopropane-1-carboxylic acid], above 500 nM; under `COC(C[C@@H]1CCCN1C1CCN(c2cnc3c(C)nn([C@H](C)c4ccc(Cl)cc4Cl)c3n2)CC1C)C(=O)O` (mixture of isomers) [Example 55, 3-((2S)-1-(1-(1-((R)-1-(2,4-Dichlorophenyl)ethyl)-3-methyl-1H-pyrazolo[3,4-b]pyrazin-6-yl)-3-methylpiperidin-4-yl)pyrrolidin-2-yl)-2-methoxypropanoic acid 2,2,2-trifluoroacetae], above 500 nM. `CC1CC(c2cnc3c(C#N)nn([C@H](C)c4ccc(Cl)cc4Cl)c3n2)=CCC1N1CCC[C@H]1CCC(=O)O` (mixture of isomers) [Example 74, 3-((2S)-1-(4-(3-Cyano-1-((R)-1-(2,4-dichlorophenyl)ethyl)-1H-pyrazolo[3,4-b]pyrazin-6-yl)-6-methylcyclohex-3-en-1-yl)pyrrolidin-2-yl)propanoic acid 2,2,2-trifluoroacetate]: the IC50 was below 100 nM. Same read-out and setting: next, `COC[C@@H]1CCCN1C1CC=C(c2cnc3c(C#N)nn([C@H](C)c4ccc(Cl)cc4Cl)c3n2)CC1C` (mixture of isomers) [Example 84, 1-((R)-1-(2,4-Dichlorophenyl)ethyl)-6-(4-((S)-2-(methoxymethyl)pyrrolidin-1-yl)-5-methylcyclohex-1-en-1-yl)-1H-pyrazolo[3,4-b]pyrazine-3-carbonitrile hydrochloride]: 100 to 500 nM.

Regarding `CC1CC(c2cnc3c(C#N)nn([C@H](C)c4ccc(Cl)cc4Cl)c3n2)=CCC1N1CCC[C@H]1CC(=O)O` (mixture of isomers) [Example 85, 2-((2S)-1-(4-(3-Cyano-1-((R)-1-(2,4-dichlorophenyl)ethyl)-1H-pyrazolo[3,4-b]pyrazin-6-yl)-6-methylcyclohex-3-en-1-yl)pyrrolidin-2-yl)acetic acid 2,2,2-trifluoroacetate], the IC50 lay within 100 to 500 nM.

As to `CCOC(=O)c1nn(C(C)c2ccc(Cl)cc2Cl)c2nc(N3CCC(N4CCCCC4)CC3)cnc12` (racemic) [Example 1, Ethyl 6-([1,4′-bipiperidin]-1′-yl)-1-(1-(2,4-dichlorophenyl)ethyl)-1H-pyrazolo[3,4-b]pyrazine-3-carboxylate hydrochloride], the IC50 was above 500 nM.

As for `Cc1nn([C@H](C)c2ccc(Cl)cc2Cl)c2nc(N3CCC(N4CCC[C@H]4CCC(O)C(F)(F)F)C(C)C3)cnc12` (single isomer, unassigned) [Example 46, hydrochloride], the IC50 was 100 to 500 nM. Same read-out and setting: under `Cc1nn([C@H](C)c2ccc(Cl)cc2Cl)c2nc(N3CCC(N4CCC[C@H]4CCC(O)C(F)(F)F)C(C)C3)cnc12` (single isomer, unassigned) [Example 47, hydrochloride] stands 100 to 500 nM; under `Cc1nn([C@H](C)c2ccc(Cl)cc2Cl)c2nc(N3CCC(N4CCC[C@H]4CC(F)C(=O)O)C(C)C3)cnc12` (single isomer, unassigned) [Example 56], 100 to 500 nM; under `Cc1nn([C@H](C)c2ccc(Cl)cc2Cl)c2nc(N3CCC(N4CCC[C@H]4CC(F)C(=O)O)C(C)C3)cnc12` (single isomer, unassigned) [Example 57], above 500 nM. With `Cc1nn([C@H](C)c2ccc(Cl)cc2Cl)c2nc(C3=CCC(N4CCC[C@H]4CCC(=O)O)C(C)C3)cnc12` (stereo in doubt) [Example 72, 3-((S)-1-((1R,6S)-4-(1-((R)-1-(2,4-Dichlorophenyl)ethyl)-3-methyl-1H-pyrazolo[3,4-b]pyrazin-6-yl)-6-methylcyclohex-3-en-1-yl)pyrrolidin-2-yl)propanoic acid hydrochloride], the IC50 (hydrochloride) was above 500 nM. For `CCOC(=O)c1nn(C(C)c2ccc(Cl)cc2Cl)c2nc(N3CCC(N4CCCCC4)C(C)C3)cnc12` (stereo not shown) [Example 2, Ethyl 1-(1-(2,4-dichlorophenyl)ethyl)-6-(3′-methyl-[1,4′-bipiperidin]-1′-yl)-1H-pyrazolo[3,4-b]pyrazine-3-carboxylate hydrochloride], the IC50 is 100 to 500 nM. Same read-out and setting: under `CC1CCCCN1C1CCN(c2cnc3c(C(N)=O)nn(C(C)c4ccc(Cl)cc4Cl)c3n2)CC1` (stereo not shown) [Example 3, 1-(1-(2,4-Dichlorophenyl)ethyl)-6-(2-methyl-[1,4′-bipiperidin]-1′-yl)-1H-pyrazolo[3,4-b]pyrazine-3-carboxamide hydrochloride] stands above 500 nM. The same measure, in the same setting: next, `CC1CN(c2cnc3c(C(N)=O)nn(C(C)c4ccc(Cl)cc4Cl)c3n2)CCC1N1CCCCC1` (stereo not shown) [Example 4, 1-(1-(2,4-Dichlorophenyl)ethyl)-6-(3′-methyl-[1,4′-bipiperidin]-1′-yl)-1H-pyrazolo[3,4-b]pyrazine-3-carboxamide hydrochloride]: 100 to 500 nM.

Regarding `CC1CN(c2cnc3c(C(N)=O)nn([C@H](C)c4ccc(Cl)cc4Cl)c3n2)CCC1N1CCCCC1` (stereo partly drawn) [Example 5, 1-((R)-1-(2,4-Dichlorophenyl)ethyl)-6-(3′-methyl-[1,4′-bipiperidin]-1′-yl)-1H-pyrazolo[3,4-b]pyrazine-3-carboxamide 2,2,2-trifluoroacetate], the IC50 lay within 100 to 500 nM. As for `CCC1CN(c2cnc3c(C(N)=O)nn(C(C)c4ccc(Cl)cc4Cl)c3n2)CCC1N1CCCCC1` (stereo not shown) [Example 6, 1-(1-(2,4-Dichlorophenyl)ethyl)-6-(3′-ethyl-[1,4′-bipiperidin]-1′-yl)-1H-pyrazolo[3,4-b]pyrazine-3-carboxamide hydrochloride], the concentration for half-maximal inhibition (IC50) lay within 100 to 500 nM. On the same count and under the same terms, under `CCC1CN(c2cnc3c(C#N)nn(C(C)c4ccc(Cl)cc4Cl)c3n2)CCC1N1CCCCC1` (stereo not shown) [Example 7, 1-(1-(2,4-Dichlorophenyl)ethyl)-6-(3′-ethyl-[1,4′-bipiperidin]-1′-yl)-1H-pyrazolo[3,4-b]pyrazine-3-carbonitrile 2,2,2-trifluoroacetate] stands 100 to 500 nM. Consider `CC1CN(c2cnc3cnn(C(C)c4ccc(Cl)cc4Cl)c3n2)CCC1N1CCCCC1` (stereo not shown) [Example 8, 1-(1-(2,4-Dichlorophenyl)ethyl)-6-(3′-methyl-[1,4′-bipiperidin]-1′-yl)-1H-pyrazolo[3,4-b]pyrazine hydrochloride], for which the IC50 was 100 to 500 nM. On the same count and under the same terms, next, `CCC1CN(c2cnc3cnn(C(C)c4ccc(Cl)cc4Cl)c3n2)CCC1N1CCCCC1` (stereo not shown) [Example 9, 1-(1-(2,4-Dichlorophenyl)ethyl)-6-(3′-ethyl-[1,4′-bipiperidin]-1′-yl)-1H-pyrazolo[3,4-b]pyrazine hydrochloride]: 100 to 500 nM.

With `CC1CN(c2cnc3c(C(F)(F)F)nn(C(C)c4ccc(Cl)cc4Cl)c3n2)CCC1N1CCCCC1` (stereo not shown) [Example 10, 1-(1-(2,4-Dichlorophenyl)ethyl)-6-(3′-methyl-[1,4′-bipiperidin]-1′-yl)-3-(trifluoromethyl)-1H-pyrazolo[3,4-b]pyrazine hydrochloride], the IC50 is above 500 nM.

As to `CCOC(=O)c1nn(Cc2ccc(Cl)cc2Cl)c2nc(N3CCC(N4CCCCC4)C(C)C3)cnc12` (stereo not shown) [Example 11, Ethyl 1-(2,4-dichlorobenzyl)-6-(3′-methyl-[1,4′-bipiperidin]-1′-yl)-1H-pyrazolo[3,4-b]pyrazine-3-carboxylate hydrochloride], the IC50 is 100 to 500 nM. Same read-out and setting: under `Cc1nn([C@H](C)c2ccc(Cl)cc2Cl)c2nc(N3CC[C@H](N4CCCC4)[C@H](C)C3)cnc12` [Example 12, 1-((R)-1-(2,4-Dichlorophenyl)ethyl)-3-methyl-6-((3R,4S)-3-methyl-4-(pyrrolidin-1-yl)piperidin-1-yl)-1H-pyrazolo[3,4-b]pyrazine hydrochloride] stands below 100 nM; under `Cc1nn([C@H](C)c2ccc(Cl)cc2Cl)c2nc(N3CC[C@H](N4CCCCCCC4)[C@H](C)C3)cnc12` [Example 16, 6-((3R,4S)-4-(Azocan-1-yl)-3-methylpiperidin-1-yl)-1-((R)-1-(2,4-dichlorophenyl)ethyl)-3-methyl-1H-pyrazolo[3,4-b]pyrazine hydrochloride], below 100 nM. Still for that read-out and setting: under `Cc1nn([C@H](C)c2ccc(Cl)cc2Cl)c2nc(N3CC[C@H](N4CC=CC4)[C@H](C)C3)cnc12` [Example 17, 1-((R)-1-(2,4-Dichlorophenyl)ethyl)-6-((3R,4S)-4-(2,5-dihydro-1H-pyrrol-1-yl)-3-methylpiperidin-1-yl)-3-methyl-1H-pyrazolo[3,4-b]pyrazine hydrochloride] stands 100 to 500 nM. The same measure, in the same setting: next, `Cc1nn([C@H](C)c2ccc(Cl)cc2Cl)c2nc(N3CC(C)C(N4CCCC4)C[C@@H]3C)cnc12` (stereo partly drawn) [Example 18, 1-((R)-1-(2,4-Dichlorophenyl)ethyl)-6-((2S)-2,5-dimethyl-4-(pyrrolidin-1-yl)piperidin-1-yl)-3-methyl-1H-pyrazolo[3,4-b]pyrazine hydrochloride]: 100 to 500 nM; `Cc1nn([C@H](C)c2ccc(Cl)cc2Cl)c2nc(N3C[C@@H](C)[C@@H](N4CCCC4)C[C@@H]3C)cnc12` [Example 19, 1-((R)-1-(2,4-Dichlorophenyl)ethyl)-6-((2S,4S,5R)-2,5-dimethyl-4-(pyrrolidin-1-yl)piperidin-1-yl)-3-methyl-1H-pyrazolo[3,4-b]pyrazine hydrochloride]: 100 to 500 nM.
